Among the data in a melting point compilation (Tetko et al.; mined from patent text by program, amines drawn as free bases though some values may be those of a salt) are melting point values, retold here.

Usually melting point stands for the temperature, or range, at which the solid turns liquid.

Structures are written as SMILES. A value given as a limit tells only on which side of the number the result lay.

`CN1CCN(Cn2cncc2-c2cc3c(Nc4ccc5[nH]ccc5c4)c(C#N)cnc3s2)CC1` registered a melting point of over 245 °C. The result for `CC(C)(C)c1cc(C(=O)Sc2ccccn2)cc(C(C)(C)C)c1` reads 73 to 74 °C.

Turning to `N#C/C=C/c1cn(-c2c(Cl)cc(C(F)(F)F)cc2Cl)nc1C#N`, the melting point was 144 to 145 °C. In turn, `CCCCCCCCCCNC(=S)Nc1ccc(NNC=O)cc1` returned a melting point of 150 to 152 °C. The compound `O=C(OCc1ccccc1)c1ncoc1CCNC(=O)[C@H](Cc1cccs1)N[C@@H](CCc1ccccc1)C(=O)OCc1ccccc1` registered a melting point of 81 to 83 °C. `CCN(CC)C(=O)CCc1nc(-c2ccccc2)nc2ccc(OC)cc12` showed a melting point of 144 °C. For the compound `CCNC(=O)Nc1ccc(-c2sc3c(c2CN(C)CCC(=O)N2CCCC2)c(=O)n(-c2ccccc2)c(=O)n3Cc2c(F)cccc2F)cc1`, the melting point fell in the range of 240 to 244 °C. Next, `Cc1cccc(-c2nc3ccc(O)cc3n2Cc2ccccc2Br)c1`: 218 °C; `COCc1csc2c(C(=O)O)c(=O)c3cc4c(cc3n12)OCO4`: 265 °C; `O=C(O)C(=O)c1ccc(OCCCCc2cccnc2)cc1`: 163 to 165 °C. The result for `CC(C)Cc1ccc2ccc(N)nc2n1` reads 125 to 127 °C. The result for `CCc1cc(CC)c(-c2c(OCCl)c(C)nn(C)c2=O)c(CC)c1` reads 103 to 104 °C. Turning to `O=c1[nH]cnc2c1sc(=O)n2C1OC(CO)C(O)C1O` (centres undefined), the melting point was in the range of 216 to 218 °C. The compound `COc1cc(OC)n2sc(=NS(=O)(=O)Cc3ccccc3OC(F)F)nc2n1` showed a melting point of 151 to 152 °C. Next, `CSc1nn2c(Cl)cc(CN3CCN(C)CC3)nc2c1S(=O)(=O)c1ccccc1`: 113 to 116 °C. The result for `CC(C)(C)OC(=O)NCCNC(=O)c1cscn1` reads 112 to 118 °C.

Regarding `CCOC(=O)c1cnn2c1c(S)nc1c(C)nn(C)c12`, the melting point lay within 189 to 191 °C. Next, `Cc1cc(-n2ccnc2)c2cccc(OCc3c(Cl)ccc(S(=O)(=O)N4CCC[C@H]4C(=O)NCC4CCN(CCO)CC4)c3Cl)c2n1`: 160 °C; `CC(=O)c1cccc(C(=O)O)c1O`: 135 to 136 °C; `O=C(NCc1ccc(Cl)cc1)c1ccccc1S`: 131 to 132 °C. Consider `CCCCC(C)(C)C(O)CCN1C(=O)NC(=O)C1CCCCCCC(=O)O` (centres undefined), for which the melting point is 90 to 98 °C.

Compound `CC(=O)c1cc2nc(SCc3nccc4c3OCO4)[nH]c2cc1C` displayed a melting point of 141 to 143 °C. The result for `CCNC(=O)CCCNC(=O)CCCNC(=O)CCCNC(=O)OC(C)(C)C` reads 170 to 171 °C; that for `C#CCOc1cc(-n2nc(C)ccc2=O)c(F)cc1C#N`, 180 °C. The result for `COc1ccc(N2C(=O)N(c3cccc(C#N)c3)c3nc(Nc4cccc(CCO)c4)ncc3C2C)cc1` (centres undefined) reads 195 to 200 °C; that for `Cc1cc(Cl)cc(C(=O)Nc2cccc(F)c2)n1`, 123 °C; that for `CCOC(=S)C(C)Cc1ccc(OCC(=O)O)cc1` (centres undefined), 77 to 78 °C. The result for `Cc1ccccc1NC(=O)c1cc([N+](=O)[O-])ccc1NC(=O)CF` reads 238 to 239 °C; that for `O=C(Nc1nccs1)c1c(C(O)CO)nc2c(C(F)(F)F)cccc2c1O` (centres undefined), 255 °C; that for `CCN(CC)CCC1(C(N)=O)Cc2ccccc2N(CC)c2ccccc21` (centres undefined), 95 to 97 °C. In the case of `CS(=O)(=O)c1ccc(-c2nn(Cc3ccc(F)cc3F)c(=O)cc2-c2ccc(Cl)cc2)cc1`, the melting point came to 174 °C. The result for `COc1ccccc1NC(=O)Nc1nc2nc(NCCCN3CCN(C)CC3)ncc2cc1-c1c(Cl)cccc1Cl` reads 152 to 154 °C; that for `CC(C)=CCCC(C)=CCOc1ccc(C(=O)Nc2cccnc2)cc1`, 102 to 103 °C; that for `Cc1ccc(-c2nc(N3CCOCC3)c3c(C)c(C#N)sc3n2)cc1`, 206 to 207 °C.
